From article PMC10107326 (Angewandte Chemie (International Ed. in English), 2022)
No end group written: not given here.

Key:
HepG2 = assay: Cytotoxicity against HepG2; assay type: cell-based; details: HepG2 human cell line
large panel of pathogens = details: pure DD; cited from earlier work

| Substance | IC50 (HepG2) | decrease in activity when comparing DA and DD, fold (large panel of pathogens) |
| --- | --- | --- |
| D32: engineered darobactin, core peptide WNWCKRW, cysteine disulfide-bonded to L-cysteine and lactic acid (not fully specified; also: Cys4 disulfide-bonded to L-cysteine, lactic acid attached, position not given here) | > 37 µg/mL | – |
| WNWTRSF (also: bicyclic or more (positions not given here)) [DD] | – | 16 fold |
